# Test system: microfilariae of Dirofilaria immitis
# Test: Dirofilaria immitis, Microfilaria (DiMF) In vitro Assay
# Assay type: cell-based
# Details: 72 h, read-out: DiMF Minimum Effective Dose (MED), approximately 72 hours incubation, microfilariae assessed for survival or paralysis
row,Structure (SMILES),minimal effective concentration [µM]
1,"Cc1cn(Cc2ccc(C[C@H]3OC(=O)[C@H](CC(C)C)N(C)C(=O)[C@@H](C)OC(=O)[C@H](CC(C)C)N(C)C(=O)[C@@H](Cc4ccc(Cn5cnc(C)c5)cc4)OC(=O)[C@H](CC(C)C)N(C)C(=O)[C@@H](C)OC(=O)[C@H](CC(C)C)N(C)C3=O)cc2)cn1 [Example 6-14, (3S,6R,9S,12R,15S,18R,21S,24R)-3,9,15,21-tetraisobutyl-4,6,10,16,18,22-hexamethyl-12,24-bis(4-((4-methyl-1H-imidazol-1-yl)methyl)benzyl)-1,7,13,19-tetraoxa-4,10,16,22-tetraazacyclotetracosan-2,5,8,11,14,17,20,23-octaone]",0.01 to 0.1
2,"CC(C)C[C@H]1C(=O)O[C@H](Cc2ccc(Cn3ccnc3CO)cc2)C(=O)N(C)[C@@H](CC(C)C)C(=O)O[C@H](C)C(=O)N(C)[C@@H](CC(C)C)C(=O)O[C@H](Cc2ccc(Cn3ccnc3CO)cc2)C(=O)N(C)[C@@H](CC(C)C)C(=O)O[C@H](C)C(=O)N1C [Example 6-16, (3S,6R,9S,12R,15S,18R,21S,24R)-6,18-bis(4-((2-(hydroxymethyl)-1H-imidazol-1-yl)methyl)benzyl)-3,9,15,21-tetraisobutyl-4,10,12,16,22,24-hexamethyl-1,7,13,19-tetraoxa-4,10,16,22-tetraazacyclotetracosan-2,5,8,11,14,17,20,23-octaone]",0.001 to 0.01
3,"CC(C)C[C@H]1C(=O)O[C@H](Cc2ccc(Cn3ccnc3-c3cncs3)cc2)C(=O)N(C)[C@@H](CC(C)C)C(=O)O[C@H](C)C(=O)N(C)[C@@H](CC(C)C)C(=O)O[C@H](Cc2ccc(Cn3ccnc3-c3cncs3)cc2)C(=O)N(C)[C@@H](CC(C)C)C(=O)O[C@H](C)C(=O)N1C [Example 6-18, (3S,6R,9S,12R,15S,18R,21S,24R)-3,9,15,21-tetraisobutyl-4,6,10,16,18,22-hexamethyl-12,24-bis(4-((2-(thiazol-5-yl)-1H-imidazol-1-yl)methyl)benzyl)-1,7,13,19-tetraoxa-4,10,16,22-tetraazacyclotetracosan-2,5,8,11,14,17,20,23-octaone]",0.01 to 0.1
4,"COCc1nccn1Cc1ccc(C[C@H]2OC(=O)[C@H](CC(C)C)N(C)C(=O)[C@@H](C)OC(=O)[C@H](CC(C)C)N(C)C(=O)[C@@H](Cc3ccc(Cn4ccnc4COC)cc3)OC(=O)[C@H](CC(C)C)N(C)C(=O)[C@@H](C)OC(=O)[C@H](CC(C)C)N(C)C2=O)cc1 [Example 6-19, (3S,6R,9S,12R,15S,18R,21S,24R)-3,9,15,21-tetraisobutyl-6,18-bis(4-((2-(methoxymethyl)-1H-imidazol-1-yl)methyl)benzyl)-4,10,12,16,22,24-hexamethyl-1,7,13,19-tetraoxa-4,10,16,22-tetraazacyclotetracosan-2,5,8,11,14,17,20,23-octaone]",0.001 to 0.01
5,"Cc1nccn1Cc1ccc(C[C@H]2OC(=O)[C@H](CC(C)C)N(C)C(=O)[C@@H](C)OC(=O)[C@H](CC(C)C)N(C)C(=O)[C@@H](Cc3cccc(Cn4ccnc4C)c3)OC(=O)[C@H](CC(C)C)N(C)C(=O)[C@@H](C)OC(=O)[C@H](CC(C)C)N(C)C2=O)cc1 [Example 7-1, (3S,6R,9S,12R,15S,18R,21S,24R)-3,9,15,21-tetraisobutyl-4,6,10,16,18,22-hexamethyl-12-[[3-[(2-methylimidazol-1-yl)methyl]phenyl]methyl]-24-[[4-[(2-methylimidazol-1-yl)methyl]phenyl]methyl]-1,7,13,19-tetraoxa-4,10,16,22-tetrazacyclotetracosane-2,5,8,11,14,17,20,23-octaone]",0.01 to 0.1
6,"CC(C)C[C@H]1C(=O)O[C@H](Cc2cccc(Cn3ccnc3)c2)C(=O)N(C)[C@@H](CC(C)C)C(=O)O[C@H](C)C(=O)N(C)[C@@H](CC(C)C)C(=O)O[C@H](Cc2ccc(Cn3ccnc3)cc2)C(=O)N(C)[C@@H](CC(C)C)C(=O)O[C@H](C)C(=O)N1C [Example 7-2, (3S,6R,9S,12R,15S,18R,21S,24R)-6-(3-((1H-imidazol-1-yl)methyl)benzyl)-18-(4-((1H-imidazol-1-yl)methyl)benzyl)-3,9,15,21-tetraisobutyl-4,10,12,16,22,24-hexamethyl-1,7,13,19-tetraoxa-4,10,16,22-tetraazacyclotetracosan-2,5,8,11,14,17,20,23-octaone]",0.01 to 0.1
7,"CCc1nccn1Cc1ccc(C[C@H]2OC(=O)[C@H](CC(C)C)N(C)C(=O)[C@@H](C)OC(=O)[C@H](CC(C)C)N(C)C(=O)[C@@H](Cc3cccc(Cn4ccnc4CC)c3)OC(=O)[C@H](CC(C)C)N(C)C(=O)[C@@H](C)OC(=O)[C@H](CC(C)C)N(C)C2=O)cc1 [Example 7-4, (3S,6R,9S,12R,15S,18R,21S,24R)-6-[[3-[(2-ethylimidazol-1-yl)methyl]phenyl]methyl]-18-[[4-[(2-ethylimidazol-1-yl)methyl]phenyl]methyl]-3,9,15,21-tetraisobutyl-4,10,12,16,22,24-hexamethyl-1,7,13,19-tetraoxa-4,10,16,22-tetrazacyclotetracosane-2,5,8,11,14,17,20,23-octaone]",0.01 to 0.1
8,"CC(C)C[C@H]1C(=O)O[C@H](Cc2cccc(Cn3ccnc3C3CC3)c2)C(=O)N(C)[C@@H](CC(C)C)C(=O)O[C@H](C)C(=O)N(C)[C@@H](CC(C)C)C(=O)O[C@H](Cc2ccc(Cn3ccnc3C3CC3)cc2)C(=O)N(C)[C@@H](CC(C)C)C(=O)O[C@H](C)C(=O)N1C [Example 7-7, (3S,6R,9S,12R,15S,18R,21S,24R)-6-[[3-[(2-cyclopropylimidazol-1-yl)methyl]phenyl]methyl]-18-[[4-[(2-cyclopropylimidazol-1-yl)methyl]phenyl]methyl]-3,9,15,21-tetraisobutyl-4,10,12,16,22,24-hexamethyl-1,7,13,19-tetraoxa-4,10,16,22-tetrazacyclotetracosane-2,5,8,11,14,17,20,23-octaone]",0.01 to 0.1
9,"CC(C)C[C@H]1C(=O)O[C@H](Cc2cccc(Cn3ccnc3CO)c2)C(=O)N(C)[C@@H](CC(C)C)C(=O)O[C@H](C)C(=O)N(C)[C@@H](CC(C)C)C(=O)O[C@H](Cc2ccc(Cn3ccnc3CO)cc2)C(=O)N(C)[C@@H](CC(C)C)C(=O)O[C@H](C)C(=O)N1C [Example 7-11, (3S,6R,9S,12R,15S,18R,21S,24R)-6-(3-((2-(hydroxymethyl)-1H-imidazol-1-yl)methyl)benzyl)-18-(4-((2-(hydroxymethyl)-1H-imidazol-1-yl)methyl)benzyl)-3,9,15,21-tetraisobutyl-4,10,12,16,22,24-hexamethyl-1,7,13,19-tetraoxa-4,10,16,22-tetraazacyclotetracosan-2,5,8,11,14,17,20,23-octaone]",0.01 to 0.1
10,"CC(C)C[C@H]1C(=O)O[C@H](Cc2ccc(Cn3ccnc3)cc2)C(=O)N(C)[C@@H](CC(C)C)C(=O)O[C@H](C)C(=O)N(C)[C@@H](CC(C)C)C(=O)O[C@H](Cc2ccccc2)C(=O)N(C)[C@@H](CC(C)C)C(=O)O[C@H](C)C(=O)N1C [Example 8-2, (3S,6R,9S,12R,15S,18R,21S,24R)-6-benzyl-18-[[4-(imidazol-1-ylmethyl)phenyl]methyl]-3,9,15,21-tetraisobutyl-4,10,12,16,22,24-hexamethyl-1,7,13,19-tetraoxa-4,10,16,22-tetrazacyclotetracosane-2,5,8,11,14,17,20,23-octaone]",0.01 to 0.1

# Source: patent US11331369B2, “Endoparasitic depsipeptides” (Zoetis Services LLC, priority 2017, dated 2022)
